Data published in PubChem BioAssay AID1645871.

Settings: pampa; pH 5.0; 30.0 min; 50.0 µM

COc1cccc(C(=O)Nc2ccc3oc(-c4ccc5ccccc5c4)nc3c2)c1
Papp: 756 ×10⁻⁶ cm/s

Oc1ccccc1CN1CCNc2cc(Nc3ccccc3)ncc2C1
Papp: 23.1 ×10⁻⁶ cm/s

COC(=O)c1ccc(NS(=O)(=O)c2c(C)nc3sccn3c2=O)cc1
Papp: 413 ×10⁻⁶ cm/s

S=c1[nH]c2ccccc2n1CCc1ccccc1
Papp: 903 ×10⁻⁶ cm/s

COc1cc(Cl)c(C)cc1NS(=O)(=O)c1c(C)nc2sccn2c1=O
Papp: 802 ×10⁻⁶ cm/s

Cc1cc(NS(=O)(=O)c2ccc3c(c2)CCC(=O)N3)ccc1F
Papp: 463 ×10⁻⁶ cm/s

CN1C(=O)C(=O)N2C(=C[C@]3(c4c[nH]c5ccccc45)c4ccccc4N[C@H]23)C1=O
Papp: 986 ×10⁻⁶ cm/s

COc1ccc(NC(=O)c2cc(-c3ccc[nH]3)n[nH]2)cc1OC
Papp: 203 ×10⁻⁶ cm/s

O=C(NC1CCCN(c2cc(-c3ccc(F)cc3)[nH]n2)C1)c1ccc2ncccc2c1 (stereo unspecified)
Papp: > 1000 ×10⁻⁶ cm/s

Cc1ccc(C)c(CN2CCC(CNC(=O)Nc3ccc(Br)cc3F)CC2)c1
Papp: 979 ×10⁻⁶ cm/s

CSc1nnc2c3ccccc3n(CCc3ccccc3)c2n1
Papp: > 1000 ×10⁻⁶ cm/s

CN(C)c1cccc(-c2cnc(Nc3cccnc3)c3c2CCO3)c1
Papp: > 1000 ×10⁻⁶ cm/s

C[C@H]1CN(C(=O)c2nn(C)c3ccccc23)C[C@@H]1c1nc(-c2cccnc2)no1
Papp: 739 ×10⁻⁶ cm/s

FC(F)(F)c1ccc(CN2CCNc3cc(Nc4ccccc4)ncc3C2)cc1
Papp: 21.1 ×10⁻⁶ cm/s

CCCCc1ccc(NC(=O)c2ccc3c(c2)N(S(C)(=O)=O)CC3)cc1
Papp: 385 ×10⁻⁶ cm/s

Cc1ccc(C)c(CN2C(=O)c3ccccc3S(=O)c3ccc(C(=O)N4CCN(c5ccccc5F)CC4)cc32)c1 (stereo unspecified)
Papp: 932 ×10⁻⁶ cm/s

COc1ccc(-n2nc(C3CCN(C(=O)C4CC4)CC3)[nH]c2=O)cc1
Papp: 130 ×10⁻⁶ cm/s

Oc1ccc(-c2nc(C3CC3)nc3c2CCN(CC2CCCCC2)CC3)cc1
Papp: 190 ×10⁻⁶ cm/s

CCN(CCN(C)C)C(=O)C1CCN(S(=O)(=O)c2c(C)noc2/C=C/c2ccccc2F)CC1
Papp: 565 ×10⁻⁶ cm/s

Cc1ccccc1-c1nc(NCc2ccc(-c3cccnc3)cc2)c2ccccc2n1
Papp: > 1000 ×10⁻⁶ cm/s

CN1CCCC(CC2c3ccccc3Sc3ccccc32)C1 (stereo unspecified)
Papp: > 1000 ×10⁻⁶ cm/s

COc1cccc(CNCc2cccn2-c2nnc(N3CCN(c4ccccc4)CC3)s2)c1
Papp: 924 ×10⁻⁶ cm/s

CCc1ccc(C2N=C(N)Nc3nc4ccccc4n32)cc1 (stereo unspecified)
Papp: 1.54 ×10⁻⁶ cm/s

O=C(O)c1ccc(N2C(=O)/C(=C/c3ccc(-c4ccc([N+](=O)[O-])cc4)o3)C=C2c2ccccc2)cc1
Papp: 37.5 ×10⁻⁶ cm/s

CN1CCN(c2ccc(Nc3nn4c(=O)c5ccccc5nc4s3)cc2)CC1
Papp: 5.91 ×10⁻⁶ cm/s

CCc1ccc(OC(C)C(=O)N2CCC(c3nc4ccccc4o3)CC2)cc1 (stereo unspecified)
Papp: > 1000 ×10⁻⁶ cm/s

Cc1cnc(-c2ccccc2C(C)C)nc1NCc1ccc(-n2ccnn2)cc1
Papp: 663 ×10⁻⁶ cm/s

COc1ccc(-n2nc3c(N4CCCC(C(=O)NCCc5ccc(C)cc5)C4)nnc(C)c3c2C)cc1 (stereo unspecified)
Papp: 467 ×10⁻⁶ cm/s

Cc1nn2c(c1-c1ccccc1-c1ccccc1)N(CCC(C)C)CCC2
Papp: 350 ×10⁻⁶ cm/s

Cc1c(CN(C)c2cc(C3CC(O)C3)nc(N)n2)[nH]c2ccccc12 (stereo unspecified)
Papp: 44.8 ×10⁻⁶ cm/s

COc1ccccc1C(=O)NC1CCCc2c1[nH]c1c(Cl)cccc21 (stereo unspecified)
Papp: 607 ×10⁻⁶ cm/s

CC(=O)Nc1ccc(NC(=O)C(NS(=O)(=O)c2ccc(Br)s2)c2ccccc2)cc1 (stereo unspecified)
Papp: 16.2 ×10⁻⁶ cm/s

COc1cccc(CN2CCNc3cc(Nc4ccccc4)ncc3C2)c1
Papp: 187 ×10⁻⁶ cm/s

O=C(O)c1cccc(-c2noc(-c3ccccc3F)n2)c1
Papp: 892 ×10⁻⁶ cm/s

CCOc1ccc(Nc2nc(C)c(NC(=O)c3ccc(C)cc3)c(Nc3ccc(OCC)cc3)n2)cc1
Papp: 59 ×10⁻⁶ cm/s

CC(C)Oc1ccc(CNC(=O)C2CCN(C(=O)N3CCOc4ccc(Cl)cc43)CC2)cc1
Papp: 860 ×10⁻⁶ cm/s

COc1ccc(-c2ccc3ncc(Nc4ccncc4)n3n2)cc1OC
Papp: 26.2 ×10⁻⁶ cm/s

COc1ccccc1Nc1ccnc(N2CCN(C(=O)c3ccc(F)cc3)CC2)n1
Papp: 853 ×10⁻⁶ cm/s

Cc1c(Cl)cccc1NC(=O)CNS(=O)(=O)c1cccs1
Papp: 458 ×10⁻⁶ cm/s

CCOC(=O)N1CCN(C(=O)Cn2sc3nc(C)cc(C)c3c2=O)CC1
Papp: 19.1 ×10⁻⁶ cm/s

COc1ccc2c(c1)CCc1c-2n[nH]c1C(=O)N1CCc2c(nc3cc(-c4ccccc4)[nH]n3c2=O)C1
Papp: 15.8 ×10⁻⁶ cm/s

O=C(Cc1cccs1)NCc1nnc2ccc(-c3ccccc3)nn12
Papp: 55.9 ×10⁻⁶ cm/s

Cc1ccccc1C(=O)NC1CCN(c2ccc3nnc(C4CC4)n3n2)CC1
Papp: 35 ×10⁻⁶ cm/s

COc1ccc(-n2nc(C3CCN(C(=O)Cc4ccc(F)cc4)CC3)[nH]c2=O)cc1
Papp: 410 ×10⁻⁶ cm/s

O=C(CSc1nc(-c2ccc(F)cc2)[nH]c1-c1ccc(F)cc1)Nc1ccc2c(c1)OCCO2
Papp: 585 ×10⁻⁶ cm/s

O=C(NCCCNc1nc(Nc2cccc(CN3CCOCC3)c2)ncc1C1CC1)C1CCC1
Papp: 8.82 ×10⁻⁶ cm/s

O=C(c1ccc(-c2ncc3cnc(-c4ccccc4)cn23)cc1)N1CCS(=O)(=O)CC1
Papp: 22.8 ×10⁻⁶ cm/s

COc1ccc2c(c1)N(C[C@H](C)CN(C)C)c1ccccc1S2
Papp: 723 ×10⁻⁶ cm/s

CC1=Nc2cc(C(=O)NCCc3ccccc3)ccc2Sc2c(C)ccc(C)c21
Papp: 466 ×10⁻⁶ cm/s

COc1ccccc1Nc1ccnc(N2CCN(C(=O)c3ccc(C)cc3)CC2)n1
Papp: > 1000 ×10⁻⁶ cm/s

Cc1ccc2oc3c(c(=O)c2c1)C(c1ccc(O)cc1)N(CCCN(C)C)C3=O (stereo unspecified)
Papp: 3.9 ×10⁻⁶ cm/s

COc1ccc(C)cc1NC(=O)c1cnc(-c2ccc(F)cc2)nc1-c1ccncc1
Papp: 926 ×10⁻⁶ cm/s

Cc1ccc(NC(=O)C(Cc2ccccc2)NS(=O)(=O)c2cccs2)cc1Cl (stereo unspecified)
Papp: 570 ×10⁻⁶ cm/s

COc1cc(NC(=O)Cn2c(=O)oc3cc(S(=O)(=O)N4CCCCCC4)ccc32)cc(OC)c1
Papp: 372 ×10⁻⁶ cm/s

Cc1ccc(Nc2nc(C)c(NC(=O)c3ccc(C)cc3)c(Nc3ccc(C)cc3)n2)cc1
Papp: 6.76 ×10⁻⁶ cm/s

CN1CCN(CCCN2c3ccccc3Sc3ccc(S(=O)(=O)N(C)C)cc32)CC1
Papp: 730 ×10⁻⁶ cm/s

CCC1=Nc2cc(C(=O)NCCCOC)ccc2Sc2ccc(Br)cc21
Papp: > 1000 ×10⁻⁶ cm/s

C[C@]1(CO)CN(c2cc(C(=O)Nc3ccc4c(c3)-c3c(c(C(N)=O)nn3-c3ccc(F)cc3)CC4)c(Cl)cn2)C[C@@]1(C)CO
Papp: 45.6 ×10⁻⁶ cm/s

C=CCc1ccc(O)c(-c2ccc(O)c(CC=C)c2)c1
Papp: 446 ×10⁻⁶ cm/s

CC(C)CNc1ccnc(NCc2csc(-c3ccccc3)n2)n1
Papp: > 1000 ×10⁻⁶ cm/s

Cc1ccc(-n2nc3c(=O)n(CCCC(=O)NC(C)c4ccccc4)nc(C)c3c2C)cc1 (stereo unspecified)
Papp: 562 ×10⁻⁶ cm/s

CC(=O)N[C@H]1CN(C2CCN(c3ccc(F)cc3C)CC2)C[C@@H]1C1CC1
Papp: 144 ×10⁻⁶ cm/s

Cc1cc(-c2ccc(C)c(S(=O)(=O)NCC3CCN(Cc4ccc(F)cc4)CC3)c2)on1
Papp: 486 ×10⁻⁶ cm/s

Cc1ccc2oc3c(c(=O)c2c1)C(c1cccc(O)c1)N(CCCN1CCOCC1)C3=O (stereo unspecified)
Papp: 2.62 ×10⁻⁶ cm/s

COc1ncc(-c2n[nH]c3c2CC(=O)N(c2ccccc2)C3)cn1
Papp: 42.5 ×10⁻⁶ cm/s

COc1cc(C(=O)NC2CCCc3c2[nH]c2ccccc32)cc(OC)c1OC (stereo unspecified)
Papp: 926 ×10⁻⁶ cm/s

COc1ccc(-n2nc(C3CCCN([S+](=O)([O-])c4cccc(C(F)(F)F)c4)C3)[nH]c2=O)cc1 (stereo unspecified)
Papp: 564 ×10⁻⁶ cm/s

O=C(O)c1ccc(Nc2nc(-c3cc4ccccc4oc3=O)cs2)cc1O
Papp: 74.2 ×10⁻⁶ cm/s

COc1ccc(-c2c(-c3cc(C(=O)O)ccn3)ncn2C)cc1
Papp: 2.67 ×10⁻⁶ cm/s

Cc1nn2c(c1-c1ccccc1-c1ccccc1)N(Cc1ccc(O)cc1)CCC2
Papp: 118 ×10⁻⁶ cm/s

Cc1cc(CNC(=O)c2ccc3c(c2)n(CC2CC2)c(=O)n3C2CCCCC2)on1
Papp: 870 ×10⁻⁶ cm/s

CC(C)Oc1cccc(C2CC(=O)Nc3cc4c(cc32)OCO4)c1 (stereo unspecified)
Papp: 785 ×10⁻⁶ cm/s

CCN(C(=O)C(NS(=O)(=O)c1ccc(Br)s1)c1ccccc1)c1ccc(C)c(C)c1 (stereo unspecified)
Papp: 110 ×10⁻⁶ cm/s

CC1=C[C@@H](CNC(C)C)[C@H](C(C)C)C[C@H]1Cc1nnc(-c2ccncc2)o1
Papp: 41.3 ×10⁻⁶ cm/s

COc1ccc(OC)c(Nc2c3c(nc4ccccc24)CCC3)c1
Papp: 129 ×10⁻⁶ cm/s

CC(C)(C)c1ccc(S(=O)(=O)N2CCC(c3ccncc3)CC2)cc1
Papp: 754 ×10⁻⁶ cm/s

O=C(NCCCN1CCCC1=O)c1ccc(-c2ncc3cnc(-c4ccccc4)cn23)cc1
Papp: 193 ×10⁻⁶ cm/s

O=S(=O)(c1ccccc1)c1nc(-c2ccc(F)cc2)oc1N1CCCCCC1
Papp: > 1000 ×10⁻⁶ cm/s

COc1cc2ncnc(Nc3ccc(Oc4ccccc4)cc3)c2cc1OC
Papp: 981 ×10⁻⁶ cm/s

CCCCCn1c(CCCNC(=O)c2ccccc2OC)nc2ccccc21
Papp: 491 ×10⁻⁶ cm/s

COc1ccccc1N1CCN(CCN(C(=O)c2ccc(F)cc2)c2ccccn2)CC1
Papp: 73 ×10⁻⁶ cm/s

CNC(=O)C1CCN(C(=O)c2ccc(-c3ncc4cnc(-c5ccccc5)cn34)cc2)CC1
Papp: 30.1 ×10⁻⁶ cm/s

CCNC(=O)c1coc(COc2ccc3c(c2)C(c2ccc(F)cc2)N(C(=O)CC(C)C)CC3)n1 (stereo unspecified)
Papp: > 1000 ×10⁻⁶ cm/s

Cc1ccc(-n2nc3c(=O)n(CCCC(=O)NCc4ccccc4F)nc(C)c3c2C)cc1
Papp: 291 ×10⁻⁶ cm/s

COc1ccc(-n2nc(C3CCCN(C(=O)C4CC4)C3)[nH]c2=O)cc1 (stereo unspecified)
Papp: 109 ×10⁻⁶ cm/s

CCOC(=O)c1cnc2ccc(-c3cncc(NS(=O)(=O)c4ccccc4)c3)cn12
Papp: 546 ×10⁻⁶ cm/s

COc1ccc(-c2nc3c(c(SCC(=O)Nc4ccc(C(=O)O)cc4)n2)Cc2ccccc2O3)cc1
Papp: 36.6 ×10⁻⁶ cm/s

NC1(c2ccccc2Cl)CCCCC1=O (stereo unspecified)
Papp: 11.1 ×10⁻⁶ cm/s

CCCN1C(CC(C)C)=NS(=O)(=O)c2cc(NC(=O)c3cccs3)ccc21
Papp: 275 ×10⁻⁶ cm/s

CN1CCN(c2ccc(Nc3c4ccccc4nc4ccccc34)cc2)CC1
Papp: 3.75 ×10⁻⁶ cm/s

Cn1c(=O)c2c(-c3ccc(Cl)cc3)n(CCc3ccccc3)cc2n(C)c1=O
Papp: 762 ×10⁻⁶ cm/s

COc1cc2c(c(OC)c1OC)-c1ccc(OC)c(=O)cc1[C@@H](NC(C)=O)CC2
Papp: 4.51 ×10⁻⁶ cm/s

CCCCN(C)C(=O)c1c(C)sc2ccn(CCC)c(=O)c12
Papp: 113 ×10⁻⁶ cm/s

CCOC(=O)c1ccc(N2C(=O)c3n[nH]c(-c4ccco4)c3C2c2ccc(C)cc2)cc1 (stereo unspecified)
Papp: 231 ×10⁻⁶ cm/s

CN(Cc1ccc(/C=C/C(=O)NO)cc1)CC12CC3CC(CC(C3)C1)C2
Papp: 108 ×10⁻⁶ cm/s

O=C(CCCN1CCC(O)(c2ccc(Cl)cc2)CC1)c1ccc(F)cc1
Papp: 396 ×10⁻⁶ cm/s

Cc1nn2c(c1-c1ccccc1Oc1ccccc1)N(Cc1ccccc1O)CCC2
Papp: 879 ×10⁻⁶ cm/s

C=Cc1ccc(Cn2c(C(=O)O)c(CNC3CCCCC3)c3ccc(OC)cc32)cc1
Papp: 702 ×10⁻⁶ cm/s

Fc1ccc(N2CCCN(CC3[C@H]4CNC[C@@H]34)CC2)cc1 (stereo partly specified)
Papp: 48.8 ×10⁻⁶ cm/s

CCOc1ccc(-c2nnc(SCC(=O)NCc3ccccc3Cl)o2)cc1
Papp: 2 ×10⁻⁶ cm/s

NC1CCN(C(=O)C2CCCN(c3nc(-c4ccccc4)nc4c3CCC4)C2)CC1 (stereo unspecified)
Papp: 7.56 ×10⁻⁶ cm/s

COc1cccc(Nc2ncc(-c3cccc(N(C)C)c3)c3c2OCC3)c1
Papp: > 1000 ×10⁻⁶ cm/s

Nc1nc2c(s1)C(c1ccc(F)cc1F)CC(=O)N2 (stereo unspecified)
Papp: 5 ×10⁻⁶ cm/s

c1coc(-c2nc3ccncc3[nH]2)c1
Papp: 5.56 ×10⁻⁶ cm/s

COc1ccc(-n2nc(C3CCCN(CC4CCCCC4)C3)[nH]c2=O)cc1 (stereo unspecified)
Papp: 322 ×10⁻⁶ cm/s

FC(F)(F)c1ccccc1-c1nc(NCc2ccc(-c3cccnc3)cc2)c2ccccc2n1
Papp: 712 ×10⁻⁶ cm/s
